Test results as given in US9517993B2, “Antagonists of the toll-like receptor 1/2 complex” (THE REGENTS OF THE UNIVERSITY OF COLORADO, a body corporate, priority 2012, dated 2016).
pIC50, pKd: −log10 of the molar value.

Columns and labels:
[1] = target: T1, TLR1/2 (Mus musculus, UniProt Q9EPQ1+Q9QUN7); test: In vitro TLR1/2 inhibition assay (nitric oxide, Pam3CSK4-activated RAW 264.7 macrophages); format: cell-based; conditions: RAW 264.7 NO assay; for TLR1/2 inhibitory activity (in words, SAR and specificity): Pam3CSK4
T1 construct: production of NO in RAW 264.7 macrophage cells; endogenous in cells; host or cells: RAW 264.7
Description: To identify novel TLR1/2 complex inhibitors, a cell-based assay was employed to screen the NCI-2 diversity small-molecule library. This 1,363 compound library was chosen from the larger NCI library, which has more than 140,000 compounds, on the basis of availability, purity, and other pharmacological features, such as relative rigidity, number of rotatable bonds and chiral centers, the absence of obvious leaving groups and weakly bounded heteroatoms, etc. Screening was performed in a 96-well plate format using a previously established high-throughput nitric oxide (NO) assay. See e.g. Cheng et al., Small molecule inhibitors of the TLR3/dsRNA complex, J. Am. Chem. Soc. (2011), 133:3764-67, which is herein incorporated by reference in its entirety. Briefly, synthetic triacylated lipoprotein Pam3CSK4 was employed to selectively activate TLR1/2 signaling, resulting in the expression of inducible nitric oxide synthase (iNOS) and the production of NO in RAW 264.7 macrophage cells. NO levels were monitored as an indicator of Pam3CSK4-induced TLR1/2 activation to evaluate the compound's inhibitory activity.
RAW 264.7 (Mouse leukaemic monocyte macrophage cell line) cells were grown in RPMI 1640 medium, supplemented with 10% FBS, penicillin (100 U/mL) and streptomycin ([…]). RAW cells were then planted in 96-well plates at 80,000 cells per well and grown for 24 h in the media descried previously at 37° C. in a 5% CO2 humidified incubator. After 24 h, non-adherent cells and media were removed and replaced with fresh unsupplemented RPMI 1640 medium. The adherent macrophages were treated with Pam3CSK4 (CAS No. 112208-00-1; a synthetic triacylated lipopeptide (LP) that mimics the acylated amino terminus of bacterial LPs) (200 ng/mL) (Invivogen, USA), an agonist of TLR1/2, and then added different concentrates of potential inhibitor. Two rows were only treated with Pam3CSK4 as control. Plates were then incubated for an additional 24 h. Following incubation 100 μL of media was removed and added to flat black 96-well microfluor plates (Thermo Scientific, MA, USA). To each well, 10 μL of 2,3-diaminonaphthalene (0.05 mg/mL in 0.62 M aqueous HCl solution) was added and incubated for 15 min in the dark. The reaction was quenched by addition of 5 μL of a 3 M aqueous NaOH solution and the plate was read on Beckman Coulter DTX880 reader (Beckman Coulter, Calif., USA) with excitation at 365 nm and emission at 450 nm. The nitrite (a stable metabolite of nitric oxide) concentration was determined from a nitrite standard curve. The inhibition rate (%) of NO release was determined using the following formula: Inhibition (%)=[Pam3CSK4(OD450) […]]/[Pam3CSK4 (OD450)−Control (OD450)]×100. The IC50 values for both inhibition and cytotoxicity were determined graphically using software Origin v7.5.

[2] = target: T2, TLR1/2 (Homo sapiens, UniProt O60603+Q15399); test: Fluorescence anisotropy competition assay with rhodamine-labeled Pam3CSK4; format: binding; set-up: His; TLR2 made in house; host or cells: baculovirus; Sf-9 for virus, High Five insect cells for expression (TLR2); conditions: negative control
Source text: The TLR2 protein was expressed in the baculovirus insect cell expression system using the methods described by Kuroki et al. See Iwaki et al., The extracellular Toll-like receptor 2 domain directly binds peptidoglycan derived from Staphylococcus aureus, J. Biol Chem (2002), 277:24315-20, which is herein incorporated by reference in its entirety. The activity of the TLR2 protein was validated by the fluorescence anisotropy assay. […] Good fitting (R2>0.98) inferred that compound 17 and Pam3CSK4 compete for the same binding site on the TLR1/2 dimeric surface.
In 500 μL Tris buffer (pH=7.2) add 10 μL, (1 ng/mL) rhodamine-labeled Pam3CSK4, test the fluorescence anisotropy at excitation of 549 nm and emission of 566 nm (Horiba Fluorolog 3). And 5 μL (20 μM) TLR1 (R &D) and 5 μL, (20 μM) TLR2 was added into the above buffer, then retest the anisotropy. Following, compound 17 or compound 6 was added in the buffer from the concentration of 0 to 6 μM, and the fluorescence anisotropy was tested in the corresponding concentration.
Fluorescence polarization experiments were performed at 25° C. using a Horiba Fluorolog-3 fluorometer. For direct binding measurements, serial dilutions of TLR1 (R&D, MN) and TLR2 were made in Tris buffer (pH=7.2), and an aliquot (10 μL) of 1 ng/mL rhodamine labeled Pam3CSK4, was added to a total volume of 500 μL. The competition binding solution was incubated for 30 minutes at 25° C. Serial dilutions of compound 17 or compound 6 were incubated with 20 μM TLR1, 20 μM TLR2 and rhodamine-labeled Pam3CSK4 for 30 min at room temperature.
Regression analysis was carried out using Origin 7.5 (OriginLab) ligand binding macro module. […] Equation (1): y=min+(max−min)/(1+10^x-logIC50)(total binding, x=log concentration of and rhodamine-labeled Pam3CSK4, min=nonspecific binding, max=maximum binding in absence of ligand). Equation (2): Ki=IC50/(1+[L]/Kd) ([L]=concentration of rhodamine-labeled Pam3CSK4).
Target sequence in this assay (Q15399 25-580 limits assumed): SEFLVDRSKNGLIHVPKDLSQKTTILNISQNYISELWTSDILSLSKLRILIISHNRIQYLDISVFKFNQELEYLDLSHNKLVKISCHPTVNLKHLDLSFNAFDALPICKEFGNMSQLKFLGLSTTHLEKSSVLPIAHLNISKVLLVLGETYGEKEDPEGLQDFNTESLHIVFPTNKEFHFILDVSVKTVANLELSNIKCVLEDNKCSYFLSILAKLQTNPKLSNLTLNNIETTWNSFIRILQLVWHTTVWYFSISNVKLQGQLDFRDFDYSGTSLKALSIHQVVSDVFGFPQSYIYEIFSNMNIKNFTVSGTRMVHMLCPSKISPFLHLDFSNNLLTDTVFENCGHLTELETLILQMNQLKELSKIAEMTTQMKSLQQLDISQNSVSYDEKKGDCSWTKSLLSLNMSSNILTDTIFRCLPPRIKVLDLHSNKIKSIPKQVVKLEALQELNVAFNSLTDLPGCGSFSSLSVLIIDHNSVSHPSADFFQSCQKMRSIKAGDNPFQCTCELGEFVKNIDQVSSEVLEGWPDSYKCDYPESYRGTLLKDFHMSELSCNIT
Target sequence in this assay (O60603 21-588 limits assumed): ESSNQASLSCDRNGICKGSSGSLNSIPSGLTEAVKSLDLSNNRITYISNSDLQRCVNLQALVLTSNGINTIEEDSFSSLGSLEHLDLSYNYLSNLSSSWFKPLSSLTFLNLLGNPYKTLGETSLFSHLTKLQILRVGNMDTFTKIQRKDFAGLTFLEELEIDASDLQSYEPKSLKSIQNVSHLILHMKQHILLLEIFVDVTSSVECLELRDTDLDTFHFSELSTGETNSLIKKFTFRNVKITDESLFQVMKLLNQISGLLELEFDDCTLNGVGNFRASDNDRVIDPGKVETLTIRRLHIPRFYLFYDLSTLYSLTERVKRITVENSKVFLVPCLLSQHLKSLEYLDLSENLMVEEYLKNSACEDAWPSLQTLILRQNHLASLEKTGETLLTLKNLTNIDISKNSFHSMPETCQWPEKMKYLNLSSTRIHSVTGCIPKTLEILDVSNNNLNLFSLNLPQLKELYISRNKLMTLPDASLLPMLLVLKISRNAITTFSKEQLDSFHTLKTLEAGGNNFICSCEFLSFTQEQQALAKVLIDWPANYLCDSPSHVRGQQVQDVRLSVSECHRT

[3] = target: T2, TLR1/2; conditions: read-out: known affinity (Kd); cited from earlier work
Target sequence in this assay (Q15399 25-786): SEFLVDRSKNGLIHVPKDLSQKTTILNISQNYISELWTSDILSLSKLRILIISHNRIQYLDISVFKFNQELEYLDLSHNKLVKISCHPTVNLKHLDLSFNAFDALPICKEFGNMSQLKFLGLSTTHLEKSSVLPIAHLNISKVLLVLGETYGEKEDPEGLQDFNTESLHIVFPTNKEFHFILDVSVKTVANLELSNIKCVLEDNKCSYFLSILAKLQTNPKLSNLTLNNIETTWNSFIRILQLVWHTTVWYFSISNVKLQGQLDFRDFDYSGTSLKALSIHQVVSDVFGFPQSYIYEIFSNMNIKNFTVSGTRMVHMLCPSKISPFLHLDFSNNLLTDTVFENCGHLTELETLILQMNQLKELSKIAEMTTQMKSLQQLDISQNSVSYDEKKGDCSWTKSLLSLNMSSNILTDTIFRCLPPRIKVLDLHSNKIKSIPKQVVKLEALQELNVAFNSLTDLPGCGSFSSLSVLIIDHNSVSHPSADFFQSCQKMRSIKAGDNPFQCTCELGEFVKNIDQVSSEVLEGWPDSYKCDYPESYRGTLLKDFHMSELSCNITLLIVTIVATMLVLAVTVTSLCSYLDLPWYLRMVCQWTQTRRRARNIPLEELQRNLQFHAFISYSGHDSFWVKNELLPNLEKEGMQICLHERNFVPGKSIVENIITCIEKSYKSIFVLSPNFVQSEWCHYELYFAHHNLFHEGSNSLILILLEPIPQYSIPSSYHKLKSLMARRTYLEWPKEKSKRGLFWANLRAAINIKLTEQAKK
Target sequence in this assay (O60603 21-784): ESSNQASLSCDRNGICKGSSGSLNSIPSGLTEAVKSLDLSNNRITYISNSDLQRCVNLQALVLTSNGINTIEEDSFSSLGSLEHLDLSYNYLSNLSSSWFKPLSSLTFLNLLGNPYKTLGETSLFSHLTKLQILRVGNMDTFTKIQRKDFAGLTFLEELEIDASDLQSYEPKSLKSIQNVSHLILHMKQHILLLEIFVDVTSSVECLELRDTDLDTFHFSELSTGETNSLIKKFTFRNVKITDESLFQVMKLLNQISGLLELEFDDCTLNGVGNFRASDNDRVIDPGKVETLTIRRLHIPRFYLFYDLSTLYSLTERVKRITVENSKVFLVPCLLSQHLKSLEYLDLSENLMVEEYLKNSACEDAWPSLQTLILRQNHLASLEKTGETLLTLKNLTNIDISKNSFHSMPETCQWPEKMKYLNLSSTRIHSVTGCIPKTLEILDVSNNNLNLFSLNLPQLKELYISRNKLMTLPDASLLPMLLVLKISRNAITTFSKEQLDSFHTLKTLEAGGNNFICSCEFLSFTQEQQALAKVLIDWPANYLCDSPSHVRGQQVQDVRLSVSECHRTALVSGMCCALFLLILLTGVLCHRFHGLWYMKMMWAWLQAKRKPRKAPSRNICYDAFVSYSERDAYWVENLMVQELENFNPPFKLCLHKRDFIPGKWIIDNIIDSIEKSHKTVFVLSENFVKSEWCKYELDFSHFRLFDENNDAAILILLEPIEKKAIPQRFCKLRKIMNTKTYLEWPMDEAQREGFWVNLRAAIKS

T1 sequence (Q9EPQ1 26-795): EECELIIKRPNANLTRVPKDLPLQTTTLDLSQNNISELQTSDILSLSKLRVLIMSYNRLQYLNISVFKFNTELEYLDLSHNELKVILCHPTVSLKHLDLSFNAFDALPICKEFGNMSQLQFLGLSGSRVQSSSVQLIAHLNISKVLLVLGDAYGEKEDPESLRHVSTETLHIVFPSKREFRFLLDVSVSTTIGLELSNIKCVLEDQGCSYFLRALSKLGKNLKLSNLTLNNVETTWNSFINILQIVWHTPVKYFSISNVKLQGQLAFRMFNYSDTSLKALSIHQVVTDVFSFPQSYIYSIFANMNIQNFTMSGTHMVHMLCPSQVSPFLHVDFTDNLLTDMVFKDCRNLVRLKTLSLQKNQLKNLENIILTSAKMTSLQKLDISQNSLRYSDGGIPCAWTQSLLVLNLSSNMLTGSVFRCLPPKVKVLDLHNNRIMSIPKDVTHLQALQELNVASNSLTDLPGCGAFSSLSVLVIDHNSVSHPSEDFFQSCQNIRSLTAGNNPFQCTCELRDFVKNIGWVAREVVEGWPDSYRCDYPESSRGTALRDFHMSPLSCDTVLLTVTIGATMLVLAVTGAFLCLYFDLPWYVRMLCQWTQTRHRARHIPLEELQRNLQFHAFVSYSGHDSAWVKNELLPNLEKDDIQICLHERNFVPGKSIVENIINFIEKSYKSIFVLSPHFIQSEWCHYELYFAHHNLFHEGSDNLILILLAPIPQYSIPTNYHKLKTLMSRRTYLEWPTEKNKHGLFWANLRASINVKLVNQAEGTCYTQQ
T1 sequence (Q9QUN7 25-784): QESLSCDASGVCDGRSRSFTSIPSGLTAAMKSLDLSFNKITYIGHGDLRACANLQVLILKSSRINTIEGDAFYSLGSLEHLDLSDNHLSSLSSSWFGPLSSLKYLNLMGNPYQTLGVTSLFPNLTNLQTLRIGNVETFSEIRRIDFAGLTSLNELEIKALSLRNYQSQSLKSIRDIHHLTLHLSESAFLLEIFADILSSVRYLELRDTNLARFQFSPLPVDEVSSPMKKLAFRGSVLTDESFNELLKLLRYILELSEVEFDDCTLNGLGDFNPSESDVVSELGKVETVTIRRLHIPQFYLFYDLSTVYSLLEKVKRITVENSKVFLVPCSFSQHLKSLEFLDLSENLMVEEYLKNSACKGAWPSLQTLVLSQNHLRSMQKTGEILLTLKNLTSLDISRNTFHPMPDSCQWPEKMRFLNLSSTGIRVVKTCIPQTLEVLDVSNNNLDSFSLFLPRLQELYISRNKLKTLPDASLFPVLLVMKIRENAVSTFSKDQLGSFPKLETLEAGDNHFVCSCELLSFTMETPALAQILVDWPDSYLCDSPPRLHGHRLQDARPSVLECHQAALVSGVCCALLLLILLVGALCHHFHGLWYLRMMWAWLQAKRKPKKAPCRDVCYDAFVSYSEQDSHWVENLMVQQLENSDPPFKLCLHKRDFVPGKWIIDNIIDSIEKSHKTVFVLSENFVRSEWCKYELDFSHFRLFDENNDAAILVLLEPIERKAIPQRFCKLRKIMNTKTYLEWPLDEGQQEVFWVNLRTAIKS

## COc1cc2cccc(O)c(=O)c2c(O)c1O [compound 4, 3,4,6-trihydroxy-2-methoxy-5H-benzo[7]annulen-5-one]
[1]
  TLR1/2 inhibitory activity (in words, SAR and specificity): no significant influence to its activity

## CCCCCCNC(=O)c1cc(O)c(=O)c2c(O)c(O)c(OC)cc2c1 [compound 22, N-hexyl-3,4,6-trihydroxy-2-methoxy-5-oxo-5H-benzo[7]annulene-8-carboxamide]
[1]
  TLR1/2 inhibitory activity (in words, SAR and specificity): activity slightly decreased

## COc1cc2cccc(OC)c(=O)c2c(OC)c1OC [compound 6, 2,3,4,6-tetramethoxy-5H-benzo[7]annulen-5-one]
[1]
  TLR1/2 inhibitory activity (in words, SAR and specificity): significant decrease of inhibition
[2]
  pIC50: < 4.40

## COc1cc2cc(C(=O)O)cc(O)c(=O)c2c(O)c1O [compound 10, 3,4,6-trihydroxy-2-methoxy-5-oxo-5H-benzo[7]annulene-8-carboxylic acid]
[1]; SAR comparison
  decrease of TLR1/2 inhibitory activity versus comparator: six-fold

## COc1cc2cc(C(=O)Nc3ccccc3C)cc(O)c(=O)c2c(O)c1O [compound 24, 3,4,6-trihydroxy-2-methoxy-5-oxo-N-o-tolyl-5H-benzo[7]annulene-8-carboxamide]
[1]
  TLR1/2 inhibitory activity (in words, SAR and specificity): no significant change in activity

## Pam3CSK4
[3]
  pKd: 8.92

## COC(=O)c1cc(O)c(=O)c2c(O)c(O)c(OC)cc2c1 [compound 11, Methyl 3,4,6-trihydroxy-2-methoxy-5-oxo-5H-benzo[7]annulene-8-carboxylate]
[1]
  TLR1/2 inhibitory activity (in words, SAR and specificity): returned the activity to the NCI35676 level

## COc1cc2cc(CO)cc(O)c(=O)c2c(O)c1O [compound 23, 3,4,6-trihydroxy-8-(hydroxymethyl)-2-methoxy-5H-benzo[7]annulen-5-one]
[1]
  TLR1/2 inhibitory activity (in words, SAR and specificity): no significant change in activity
